≈ marks a conversion by molar mass, not a printed value. One block for each compound: values may come before it.
Legend:
[1] = target: T1, Serine/threonine-protein kinase TAO2 (Homo sapiens, UniProt Q9UL54); assay: Inhibition of TAOK2 (unknown origin) after 60 mins by TR-FRET assay
T1 sequence (Q9UL54 whole entry): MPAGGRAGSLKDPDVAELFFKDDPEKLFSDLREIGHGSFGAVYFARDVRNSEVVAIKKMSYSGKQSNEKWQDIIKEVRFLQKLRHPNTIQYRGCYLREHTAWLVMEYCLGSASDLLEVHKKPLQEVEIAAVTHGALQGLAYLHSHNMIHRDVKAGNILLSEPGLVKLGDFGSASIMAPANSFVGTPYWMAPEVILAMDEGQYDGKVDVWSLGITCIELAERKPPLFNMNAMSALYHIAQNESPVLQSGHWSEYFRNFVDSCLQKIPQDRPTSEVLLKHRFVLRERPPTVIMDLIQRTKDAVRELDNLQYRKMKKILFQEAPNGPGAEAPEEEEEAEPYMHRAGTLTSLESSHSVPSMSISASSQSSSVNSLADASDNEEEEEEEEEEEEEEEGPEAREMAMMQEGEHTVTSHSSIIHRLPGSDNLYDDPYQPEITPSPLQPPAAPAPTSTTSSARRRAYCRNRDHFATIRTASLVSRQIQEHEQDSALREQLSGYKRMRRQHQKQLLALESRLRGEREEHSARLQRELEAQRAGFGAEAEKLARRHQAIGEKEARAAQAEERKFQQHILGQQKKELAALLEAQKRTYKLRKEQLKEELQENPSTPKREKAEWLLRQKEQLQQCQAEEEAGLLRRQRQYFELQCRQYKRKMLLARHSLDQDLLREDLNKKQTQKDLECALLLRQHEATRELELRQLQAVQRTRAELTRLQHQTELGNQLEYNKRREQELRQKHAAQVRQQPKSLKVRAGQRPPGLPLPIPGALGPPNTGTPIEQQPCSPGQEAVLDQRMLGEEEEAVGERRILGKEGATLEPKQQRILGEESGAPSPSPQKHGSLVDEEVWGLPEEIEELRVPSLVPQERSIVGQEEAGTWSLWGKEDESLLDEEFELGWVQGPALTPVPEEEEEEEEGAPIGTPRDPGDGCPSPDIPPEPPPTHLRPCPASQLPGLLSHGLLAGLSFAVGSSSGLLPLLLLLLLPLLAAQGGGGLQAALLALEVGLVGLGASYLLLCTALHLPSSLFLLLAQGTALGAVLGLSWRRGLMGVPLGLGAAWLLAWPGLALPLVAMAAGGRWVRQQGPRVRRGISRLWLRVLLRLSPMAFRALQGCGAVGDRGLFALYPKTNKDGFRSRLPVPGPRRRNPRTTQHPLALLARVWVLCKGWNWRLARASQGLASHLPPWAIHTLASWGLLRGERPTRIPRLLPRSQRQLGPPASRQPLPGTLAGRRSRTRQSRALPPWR

[2] = target: cGMP-dependent protein kinase 1 (Homo sapiens, UniProt Q13976); assay: Inhibition of PKG1A (unknown origin) after 60 mins by TR-FRET assay
[3] = target: T2, Dual specificity protein kinase TTK (Homo sapiens, UniProt P33981); assay: Inhibition of TTK (unknown origin) after 60 mins by TR-FRET assay
T2 sequence (P33981 whole entry): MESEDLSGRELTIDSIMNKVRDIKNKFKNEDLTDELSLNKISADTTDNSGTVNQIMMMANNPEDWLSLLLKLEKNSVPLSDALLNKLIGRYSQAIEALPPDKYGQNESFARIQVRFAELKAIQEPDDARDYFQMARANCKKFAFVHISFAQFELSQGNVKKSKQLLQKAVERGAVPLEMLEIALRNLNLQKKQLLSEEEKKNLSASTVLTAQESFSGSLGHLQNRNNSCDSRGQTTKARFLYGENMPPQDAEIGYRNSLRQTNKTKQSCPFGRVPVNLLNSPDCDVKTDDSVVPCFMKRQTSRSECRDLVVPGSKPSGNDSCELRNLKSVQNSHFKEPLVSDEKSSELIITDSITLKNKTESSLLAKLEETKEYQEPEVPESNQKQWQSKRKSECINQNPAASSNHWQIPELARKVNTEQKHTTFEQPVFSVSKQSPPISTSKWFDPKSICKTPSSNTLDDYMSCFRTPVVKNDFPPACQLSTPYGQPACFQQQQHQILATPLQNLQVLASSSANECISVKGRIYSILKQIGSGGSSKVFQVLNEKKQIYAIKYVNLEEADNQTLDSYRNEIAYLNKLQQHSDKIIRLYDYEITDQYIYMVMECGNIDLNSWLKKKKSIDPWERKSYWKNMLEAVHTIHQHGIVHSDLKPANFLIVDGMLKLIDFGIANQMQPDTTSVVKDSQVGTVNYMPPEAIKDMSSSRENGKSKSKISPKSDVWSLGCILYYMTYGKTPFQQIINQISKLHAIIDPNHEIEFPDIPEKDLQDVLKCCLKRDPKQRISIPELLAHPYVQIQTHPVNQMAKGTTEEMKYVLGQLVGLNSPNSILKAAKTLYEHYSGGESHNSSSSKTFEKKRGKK

[4] = target: Serine/threonine-protein kinase B-raf (Homo sapiens, UniProt P15056); assay: Inhibition of BRAF (unknown origin) after 60 mins by TR-FRET assay
[5] = target: T3, Tyrosine-protein kinase SYK (Homo sapiens, UniProt P43405)
Description: Inhibition of Syk (unknown origin) after 60 mins by TR-FRET assay

[6] = Inhibition of CDK11 (unknown origin) after 60 mins by TR-FRET assay; design: species or system Homo sapiens
[7] = target: Rho-associated protein kinase 2 (Homo sapiens, UniProt O75116); assay: Inhibition of ROCK2 (unknown origin) after 60 mins by TR-FRET assay
[8] = target: T4, Serine/threonine-protein kinase Nek2 (Homo sapiens, UniProt P51955); assay: Inhibition of NEK2 (unknown origin) after 60 mins by TR-FRET assay
T4 sequence (P51955 whole entry): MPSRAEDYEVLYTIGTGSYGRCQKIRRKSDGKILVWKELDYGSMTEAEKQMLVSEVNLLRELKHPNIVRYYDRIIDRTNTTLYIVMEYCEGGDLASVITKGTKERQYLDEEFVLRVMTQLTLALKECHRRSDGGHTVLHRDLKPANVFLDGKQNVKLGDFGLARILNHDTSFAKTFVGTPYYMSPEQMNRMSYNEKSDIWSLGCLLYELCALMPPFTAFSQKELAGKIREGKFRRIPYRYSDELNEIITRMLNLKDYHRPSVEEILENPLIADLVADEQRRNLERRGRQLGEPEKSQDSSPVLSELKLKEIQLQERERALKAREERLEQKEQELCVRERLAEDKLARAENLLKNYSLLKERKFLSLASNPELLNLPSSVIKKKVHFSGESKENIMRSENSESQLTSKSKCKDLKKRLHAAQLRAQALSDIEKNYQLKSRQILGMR

[9] = target: T3, Tyrosine-protein kinase SYK; remark: listed apart in the source
Description: Inhibition of C-terminal His-tagged Syk catalytic domain (356 to 635 residues) (unknown origin) using biotin-TYR1 as substrate after 60 mins by TR-FRET assay

[10] = Unbound clearance in rat microsomes; type: ADME, Microsome
[11] = target: T5, CYP3A4 (Homo sapiens, UniProt P08684); assay: Inhibition of CYP3A4 in human liver microsomes assessed as residual activity at 50 uM measured immediately relative to control; type: ADME; conditions: read-out: Activity
[12] = Unbound clearance in human microsomes; type: ADME, Microsome
[13] = target: T5, CYP3A4; assay: Inhibition of CYP3A4 in human liver microsomes assessed as residual activity at 50 uM measured after 30 mins relative to control; type: ADME; conditions: read-out: Activity
[14] = Solubility in pH 5 FeSSIF at 0.2 mg sonicated for 10 mins followed by incubation for 2 days by HPLC analysis; type: physicochemical
[15] = target: Cytochrome P450 3A4 (Homo sapiens, UniProt P08684); assay: Time-dependent inhibition of CYP3A4 in human liver microsomes at 10 to 50 uM; type: ADME
[16] = target: T5, CYP3A4; assay: Inhibition of CYP3A4 in human liver microsomes assessed as residual activity at 10 uM measured immediately relative to control; type: ADME; conditions: read-out: Activity
[17] = target: T5, CYP3A4; assay: Inhibition of CYP3A4 in human liver microsomes assessed as residual activity at 10 uM measured after 30 mins relative to control; type: ADME; conditions: read-out: Activity
[18] = Cmax in dog at 1 mg/kg, po; type: ADME, organism-based, Canis lupus familiaris; design: dose 1 mg/kg, route oral; conditions: in vivo
[19] = Half life in rat at 1 mg/kg, iv; type: ADME, organism-based; conditions: in vivo
[20] = Clearance in dog at 1 mg/kg, iv; type: ADME, organism-based, Canis lupus familiaris; conditions: in vivo
[21] = Oral bioavailability in rat at 1 mg/kg; type: ADME, organism-based; conditions: in vivo
[22] = tested on: Rattus norvegicus; assay: Antiarthritic activity in rat model of collagen-induced arthritis assessed as inhibition of paw swelling at 3 mg/kg, bid for 8 days relative to control; type: functional; conditions: 192 h
[23] = Cmax in rat at 1 mg/kg, po; type: ADME, organism-based; design: dose 1 mg/kg, route oral; conditions: in vivo
[24] = tested on: Rattus norvegicus; assay: Antiarthritic activity in po dosed rat model of collagen-induced arthritis assessed as inhibition of paw swelling administered bid for 8 days measured on day 8 up to 12 hrs; type: functional
[25] = tested on: Rattus norvegicus; assay: Toxicity in rat model of collagen-induced arthritis at 0.3 to 30 mg/kg, po bid for 8 days; type: organism-based; conditions: in vivo, 192 h
[26] = tested on: Rattus norvegicus; assay: Antiarthritic activity in rat model of collagen-induced arthritis assessed as inhibition of paw swelling at 0.3 mg/kg, bid for 8 days relative to control; type: functional; conditions: 192 h
[27] = Volume of distribution at steady state in dog at 1 mg/kg, iv; type: ADME, organism-based, Canis lupus familiaris; conditions: in vivo, read-out: Vdss
[28] = tested on: Rattus norvegicus; assay: Antiarthritic activity in po dosed rat model of collagen-induced arthritis assessed as inhibition of paw swelling administered bid for 8 days; conditions: 192 h
[29] = tested on: Rattus norvegicus; assay: Antiarthritic activity in rat model of collagen-induced arthritis assessed as inhibition of paw swelling at 30 mg/kg, bid for 8 days relative to control; type: functional; conditions: 192 h
[30] = Volume of distribution at steady state in rat at 1 mg/kg, iv; type: ADME, organism-based; conditions: in vivo, read-out: Vdss
[31] = AUC in dog at 1 mg/kg, po; type: ADME, organism-based, Canis lupus familiaris; conditions: in vivo
[32] = Half life in dog at 1 mg/kg, iv; type: ADME, organism-based, Canis lupus familiaris; conditions: in vivo
[33] = tested on: Rattus norvegicus; assay: Antiarthritic activity in rat model of collagen-induced arthritis assessed as inhibition of paw swelling at 1 mg/kg, bid for 8 days relative to control; type: functional; conditions: 192 h
[34] = tested on: Rattus norvegicus; assay: Antiarthritic activity in rat model of collagen-induced arthritis assessed as inhibition of paw swelling at 10 mg/kg, bid for 8 days relative to control; type: functional; conditions: 192 h
[35] = Cytotoxicity against human HepG2 cells; type: cell-based
[36] = Oral bioavailability in dog at 1 mg/kg; type: ADME, organism-based, Canis lupus familiaris; conditions: in vivo
[37] = target: Voltage-gated inwardly rectifying potassium channel KCNH2 (Homo sapiens, UniProt Q12809); assay: Inhibition of human ERG
[38] = Clearance in rat at 1 mg/kg, iv; type: ADME, organism-based; conditions: in vivo
[39] = AUC in rat at 1 mg/kg, po; type: ADME, organism-based; conditions: in vivo

T5 sequence (P08684 whole entry): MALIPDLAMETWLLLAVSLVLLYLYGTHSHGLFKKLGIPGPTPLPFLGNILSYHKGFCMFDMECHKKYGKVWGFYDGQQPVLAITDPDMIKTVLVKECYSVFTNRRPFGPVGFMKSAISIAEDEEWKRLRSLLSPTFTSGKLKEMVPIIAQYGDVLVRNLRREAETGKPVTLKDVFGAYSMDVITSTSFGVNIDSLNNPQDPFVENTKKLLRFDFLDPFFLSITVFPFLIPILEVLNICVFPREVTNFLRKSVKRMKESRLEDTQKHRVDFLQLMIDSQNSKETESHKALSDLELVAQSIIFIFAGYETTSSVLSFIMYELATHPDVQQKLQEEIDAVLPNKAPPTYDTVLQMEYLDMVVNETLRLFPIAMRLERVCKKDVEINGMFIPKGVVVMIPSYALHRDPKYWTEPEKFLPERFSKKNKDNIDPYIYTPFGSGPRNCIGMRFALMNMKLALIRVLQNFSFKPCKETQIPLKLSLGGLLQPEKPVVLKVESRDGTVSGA
Chain of Cytochrome P450 3A4 (P08684 whole entry): as above
Chain of Voltage-gated inwardly rectifying potassium channel KCNH2 (Q12809 whole entry): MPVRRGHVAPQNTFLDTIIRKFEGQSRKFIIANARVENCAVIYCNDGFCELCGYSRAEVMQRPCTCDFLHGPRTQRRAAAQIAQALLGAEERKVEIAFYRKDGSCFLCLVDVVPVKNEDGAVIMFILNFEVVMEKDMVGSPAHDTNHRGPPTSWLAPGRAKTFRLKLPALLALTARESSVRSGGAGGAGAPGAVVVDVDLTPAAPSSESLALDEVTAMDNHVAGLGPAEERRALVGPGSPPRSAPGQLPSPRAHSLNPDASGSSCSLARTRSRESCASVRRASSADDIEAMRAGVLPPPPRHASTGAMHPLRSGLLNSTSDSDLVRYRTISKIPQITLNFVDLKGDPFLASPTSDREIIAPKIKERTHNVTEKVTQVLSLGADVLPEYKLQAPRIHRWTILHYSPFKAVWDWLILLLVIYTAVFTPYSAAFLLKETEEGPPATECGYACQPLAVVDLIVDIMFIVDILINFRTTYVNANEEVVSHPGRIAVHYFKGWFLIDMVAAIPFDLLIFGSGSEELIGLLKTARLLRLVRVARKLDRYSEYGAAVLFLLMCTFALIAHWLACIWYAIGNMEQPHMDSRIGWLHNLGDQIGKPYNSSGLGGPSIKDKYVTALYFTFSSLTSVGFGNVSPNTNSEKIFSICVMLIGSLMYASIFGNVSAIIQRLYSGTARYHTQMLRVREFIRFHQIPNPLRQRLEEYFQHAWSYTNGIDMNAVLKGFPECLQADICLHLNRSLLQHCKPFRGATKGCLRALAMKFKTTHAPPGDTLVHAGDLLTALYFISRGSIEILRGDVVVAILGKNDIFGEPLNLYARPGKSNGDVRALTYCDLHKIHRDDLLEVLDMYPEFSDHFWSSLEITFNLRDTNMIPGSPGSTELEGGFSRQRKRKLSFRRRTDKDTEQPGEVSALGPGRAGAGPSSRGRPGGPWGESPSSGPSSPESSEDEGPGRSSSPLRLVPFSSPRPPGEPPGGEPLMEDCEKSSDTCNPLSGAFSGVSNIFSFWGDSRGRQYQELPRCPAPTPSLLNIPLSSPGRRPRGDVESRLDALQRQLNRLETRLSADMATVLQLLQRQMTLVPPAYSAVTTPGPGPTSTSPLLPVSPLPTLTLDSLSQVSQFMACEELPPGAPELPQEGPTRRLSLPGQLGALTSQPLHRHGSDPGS
Chain of Serine/threonine-protein kinase B-raf (P15056 whole entry): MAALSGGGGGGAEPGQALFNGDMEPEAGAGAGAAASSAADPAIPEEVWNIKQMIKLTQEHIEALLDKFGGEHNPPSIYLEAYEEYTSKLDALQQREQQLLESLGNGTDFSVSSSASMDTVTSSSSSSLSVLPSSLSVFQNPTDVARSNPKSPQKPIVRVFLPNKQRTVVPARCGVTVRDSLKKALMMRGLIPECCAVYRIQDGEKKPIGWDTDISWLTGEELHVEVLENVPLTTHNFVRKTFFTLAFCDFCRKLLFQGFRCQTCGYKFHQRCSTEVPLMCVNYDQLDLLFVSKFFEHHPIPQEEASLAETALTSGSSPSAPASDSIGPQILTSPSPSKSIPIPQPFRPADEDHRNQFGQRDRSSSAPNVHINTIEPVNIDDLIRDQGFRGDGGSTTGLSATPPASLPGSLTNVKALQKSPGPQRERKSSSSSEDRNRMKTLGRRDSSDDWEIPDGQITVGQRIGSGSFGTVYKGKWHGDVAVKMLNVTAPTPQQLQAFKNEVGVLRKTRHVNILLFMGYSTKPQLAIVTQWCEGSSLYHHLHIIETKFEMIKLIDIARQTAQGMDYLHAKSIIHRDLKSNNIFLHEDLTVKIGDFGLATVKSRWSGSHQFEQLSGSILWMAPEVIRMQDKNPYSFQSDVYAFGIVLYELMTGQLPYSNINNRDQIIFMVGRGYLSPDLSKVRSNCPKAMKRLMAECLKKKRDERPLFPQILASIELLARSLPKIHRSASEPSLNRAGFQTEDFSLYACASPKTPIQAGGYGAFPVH
Chain of Rho-associated protein kinase 2 (O75116 whole entry): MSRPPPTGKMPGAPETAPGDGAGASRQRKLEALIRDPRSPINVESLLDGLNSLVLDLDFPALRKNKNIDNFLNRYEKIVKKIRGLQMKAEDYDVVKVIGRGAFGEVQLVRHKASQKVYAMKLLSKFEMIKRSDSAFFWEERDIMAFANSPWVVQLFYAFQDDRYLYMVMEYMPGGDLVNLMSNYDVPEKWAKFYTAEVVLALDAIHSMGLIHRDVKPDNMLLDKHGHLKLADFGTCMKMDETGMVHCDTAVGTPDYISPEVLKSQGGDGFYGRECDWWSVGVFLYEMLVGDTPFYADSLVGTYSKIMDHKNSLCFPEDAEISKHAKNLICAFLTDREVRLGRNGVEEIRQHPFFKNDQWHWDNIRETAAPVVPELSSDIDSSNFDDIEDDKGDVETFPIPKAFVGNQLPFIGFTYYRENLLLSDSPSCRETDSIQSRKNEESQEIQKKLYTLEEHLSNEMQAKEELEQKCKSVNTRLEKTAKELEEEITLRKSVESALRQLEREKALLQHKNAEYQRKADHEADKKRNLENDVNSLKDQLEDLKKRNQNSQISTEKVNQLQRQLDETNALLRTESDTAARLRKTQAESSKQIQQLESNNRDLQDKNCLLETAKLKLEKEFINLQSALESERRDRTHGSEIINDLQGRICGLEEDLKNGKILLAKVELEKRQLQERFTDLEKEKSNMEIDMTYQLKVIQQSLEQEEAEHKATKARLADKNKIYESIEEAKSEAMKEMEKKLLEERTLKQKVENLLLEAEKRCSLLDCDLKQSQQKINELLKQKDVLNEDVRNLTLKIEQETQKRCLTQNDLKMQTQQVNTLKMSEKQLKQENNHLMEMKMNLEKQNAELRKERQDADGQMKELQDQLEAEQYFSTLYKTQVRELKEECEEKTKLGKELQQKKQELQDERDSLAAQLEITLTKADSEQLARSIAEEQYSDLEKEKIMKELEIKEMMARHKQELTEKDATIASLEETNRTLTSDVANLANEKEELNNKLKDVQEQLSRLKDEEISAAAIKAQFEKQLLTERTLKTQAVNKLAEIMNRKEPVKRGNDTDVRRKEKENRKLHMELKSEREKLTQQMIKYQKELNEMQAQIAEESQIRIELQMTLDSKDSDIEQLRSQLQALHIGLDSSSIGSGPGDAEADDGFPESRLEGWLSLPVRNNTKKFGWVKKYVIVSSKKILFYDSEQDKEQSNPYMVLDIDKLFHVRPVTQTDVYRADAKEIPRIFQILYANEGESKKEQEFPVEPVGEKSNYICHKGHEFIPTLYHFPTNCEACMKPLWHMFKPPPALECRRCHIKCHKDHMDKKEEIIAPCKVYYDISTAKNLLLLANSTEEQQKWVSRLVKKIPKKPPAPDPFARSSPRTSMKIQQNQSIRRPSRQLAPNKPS
Chain of cGMP-dependent protein kinase 1 (Q13976 whole entry): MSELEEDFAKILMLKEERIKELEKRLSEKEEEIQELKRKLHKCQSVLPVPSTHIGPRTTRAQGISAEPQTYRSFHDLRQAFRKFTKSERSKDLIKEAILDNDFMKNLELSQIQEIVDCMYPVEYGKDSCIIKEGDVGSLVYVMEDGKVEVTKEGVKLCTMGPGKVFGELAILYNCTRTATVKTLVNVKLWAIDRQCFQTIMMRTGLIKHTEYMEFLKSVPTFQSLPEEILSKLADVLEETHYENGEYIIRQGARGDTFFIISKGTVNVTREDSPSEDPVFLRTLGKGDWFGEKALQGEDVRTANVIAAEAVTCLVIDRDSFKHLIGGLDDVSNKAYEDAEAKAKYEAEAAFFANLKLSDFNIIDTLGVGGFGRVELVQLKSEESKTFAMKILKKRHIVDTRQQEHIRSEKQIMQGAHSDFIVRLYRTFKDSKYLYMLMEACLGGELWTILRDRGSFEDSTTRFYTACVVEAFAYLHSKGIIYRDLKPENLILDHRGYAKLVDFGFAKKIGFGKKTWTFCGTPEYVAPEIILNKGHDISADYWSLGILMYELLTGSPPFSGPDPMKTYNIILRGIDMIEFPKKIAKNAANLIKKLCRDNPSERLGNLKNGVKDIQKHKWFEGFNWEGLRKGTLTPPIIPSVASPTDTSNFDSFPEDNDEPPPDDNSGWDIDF

SMILES: CCCNC(=O)c1ccc(Nc2nc(NCC(F)(F)F)c3cc[nH]c3n2)cc1
- IC50 [1]: 529 nM
- IC50 [2]: > 10000 nM
- IC50 [3]: 991 nM
- IC50 [4]: > 10000 nM
- IC50 [5]: 8 nM
- IC50 [6]: > 10000 nM
- IC50 [7]: 248 nM
- IC50 [8]: > 10000 nM
- IC50 [9]: 17 nM

SMILES: CC1(C)OCC(=O)Nc2cc(Nc3nc(NC4CC4)c4occc4n3)ccc21
- CL free [10]: 200 mL/min/kg
- activity at 0 min, 50 µM [11]: 80%
- CL free [12]: 120 mL/min/kg
- activity at 0.5 h, 50 µM [13]: 14%
- solubility at 48 h [14]: 158 µM (≈ 59.9 µg/mL)
- TDI [15]: Active
- activity at 0 min, 10 µM [16]: 97%
- activity at 0.5 h, 10 µM [17]: 56%

SMILES: O=C1CCc2ccc(Nc3nc(NCC(F)(F)F)c4occc4n3)cc2N1
- CL free [10]: 365 mL/min/kg

The next lines start with results.

- CL free [10]: 318 mL/min/kg
- CL free [12]: 91.7 mL/min/kg
- solubility at 48 h [14]: > 67 µM
SMILES: CCNc1nc(Nc2ccc3c(c2)NC(=O)COC3(C)C)nc2ccoc12

- Cmax [18]: 151 ng/mL
- half-life [19]: 2 h
- clearance [20]: 2.83 mL/min/kg
- bioavailability [21]: 27%
- CL free [10]: 177 mL/min/kg
- Cmax [23]: 36 ng/mL
- CL free [12]: < 38.3 mL/min/kg
- Vd [27]: 2.3 L/kg
- solubility at 48 h [14]: > 67 µM
- Vd [30]: 4.6 L/kg
- TDI [15]: Not Active
- AUC [31]: 2340 ng·h/mL
- half-life [32]: 9.9 h
- bioavailability [36]: 40%
- clearance [38]: 28.3 mL/min/kg
- AUC [39]: 180 ng·h/mL
SMILES: COC(=O)N[C@@H]1CC(C)(C)c2ccc(Nc3nc(NCC(F)F)c4occc4n3)cc2NC1=O
- inhibition in vivo at 3 mg/kg [22]: 28%
- EAUC50 [24]: 3.9 µg·h/mL
- Activity [25]: Non-Toxic
- inhibition in vivo at 0.3 mg/kg [26]: 21%
- ED50 [28]: 9 mg/kg
- inhibition in vivo at 30 mg/kg [29]: 95%
- inhibition in vivo at 1 mg/kg [33]: 21%
- inhibition in vivo at 10 mg/kg [34]: 75%
- IC20 [35]: > 10000 nM
- IC50 [37]: > 20000 nM

- CL free [10]: 1080 mL/min/kg
- CL free [12]: 507 mL/min/kg
SMILES: CC(C)CNc1nc(Nc2ccc3c(c2)NC(=O)COC3(C)C)nc2ccoc12

- CL free [10]: 397 mL/min/kg
- CL free [12]: 317 mL/min/kg
SMILES: CC1(C)CCC(=O)Nc2cc(Nc3nc(NC4CC4)c4occc4n3)ccc21
